Measurements published in US10167262B2, “Herbicidal substituted 3-arylpyrazoles” (FMC CORPORATION, priority 2014, dated 2019).

Key:
Assay in all cases: Test E pre-/postemergence greenhouse test, plant response rating 0-100
Type in all cases: in vivo
[1] = test system: fall panicum (Panicum dichotomiflorum); details: Postemergence, scale 0 to 100
Method in brief: (§1)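 Visual control score, 0–100 relative to untreated plants, recorded 14–21 days after spraying. Treatments: preemergence on silt loam seedbeds and postemergence at the 1- to 4-leaf stage, with compound in surfactant-containing solvent.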

[2] = test system: arrowleaf sida (Sida rhombifolia); details: Postemergence
Method in brief: as §1

[3] = test system: sandbur (southern sandbur, Cenchrus echinatus); details: Postemergence, scale 0 to 100
Method in brief: as §1

[4] = test system: wild poinsettia (Euphorbia heterophylla); details: Postemergence, scale 0 to 100
Method in brief: as §1

[5] = test system: hairy beggarticks (Bidens pilosa); details: Postemergence, scale 0 to 100
Method in brief: as §1

[6] = test system: Brazilian crabgrass (Digitaria horizontalis); details: Postemergence, scale 0 to 100
Method in brief: as §1

[7] = test system: barnyardgrass (Echinochloa crus-galli); details: Postemergence, scale 0 to 100
Method in brief: as §1

[8] = test system: waterhemp (common waterhemp, Amaranthus rudis); details: Postemergence, scale 0 to 100
Method in brief: as §1

[9] = test system: palmer pigweed (Amaranthus palmeri); details: Postemergence, scale 0 to 100
Method in brief: as §1

[10] = test system: corn (Zea mays); details: Postemergence, scale 0 to 100
Method in brief: as §1

[11] = test system: soybean (Glycine max); details: Postemergence, scale 0 to 100
Method in brief: as §1

## Fc1cccc(NN=C(c2ccccc2)c2c[nH]nc2-c2cc(Cl)cc(Cl)c2)c1 [Compound 58]
[1]; 31 g ai/ha
  Plant response rating, Panicum, Fall: 0
[1]; 250 g ai/ha
  Plant response rating, Panicum, Fall: 0
[2]; 31 g ai/ha, scale 0 to 100
  Plant response rating, Arrowleaf Sida: 50
[2]; 62 g ai/ha, scale 0 to 100
  Plant response rating, Arrowleaf Sida: 50
[2]; 125 g ai/ha, scale 0 to 100
  Plant response rating, Arrowleaf Sida: 60
[2]; 250 g ai/ha, scale 0 to 100
  Plant response rating, Arrowleaf Sida: 75
[2]; 500 g ai/ha, scale 0 to 100 (0 no effect, 100 complete control)
  Plant response rating, Arrowleaf Sida: 80
[3]; 31 g ai/ha
  Plant response rating, Sandbur: 0
[3]; 62 g ai/ha
  Plant response rating, Sandbur: 0
[3]; 125 g ai/ha
  Plant response rating, Sandbur: 0
[3]; 250 g ai/ha
  Plant response rating, Sandbur: 0
[3]; 500 g ai/ha
  Plant response rating, Sandbur: 0
[4]; 31 g ai/ha
  Plant response rating, Poinsettia, Wild: 0
[4]; 62 g ai/ha
  Plant response rating, Poinsettia, Wild: 0
[4]; 125 g ai/ha
  Plant response rating, Poinsettia, Wild: 0
[4]; 250 g ai/ha
  Plant response rating, Poinsettia, Wild: 0
[4]; 500 g ai/ha
  Plant response rating, Poinsettia, Wild: 0
[5]; 31 g ai/ha
  Plant response rating, Beggarticks: 70
[5]; 62 g ai/ha
  Plant response rating, Beggarticks: 80
[5]; 125 g ai/ha
  Plant response rating, Beggarticks: 80
[5]; 250 g ai/ha
  Plant response rating, Beggarticks: 95
[5]; 500 g ai/ha
  Plant response rating, Beggarticks: 100
[6]; 31 g ai/ha
  Plant response rating, Crabgrass, Brazil: 0
[6]; 62 g ai/ha
  Plant response rating, Crabgrass, Brazil: 0
[6]; 125 g ai/ha
  Plant response rating, Crabgrass, Brazil: 0
[6]; 250 g ai/ha
  Plant response rating, Crabgrass, Brazil: 0
[6]; 500 g ai/ha
  Plant response rating, Crabgrass, Brazil: 10
[7]; 31 g ai/ha
  Plant response rating, Barnyardgrass: 0
[7]; 62 g ai/ha
  Plant response rating, Barnyardgrass: 0
[7]; 125 g ai/ha
  Plant response rating, Barnyardgrass: 0
[7]; 250 g ai/ha
  Plant response rating, Barnyardgrass: 0
[7]; 500 g ai/ha
  Plant response rating, Barnyardgrass: 0
[8]; 31 g ai/ha
  Plant response rating, Waterhemp: 80
[8]; 62 g ai/ha
  Plant response rating, Waterhemp: 90
[8]; 125 g ai/ha
  Plant response rating, Waterhemp: 95
[8]; 250 g ai/ha
  Plant response rating, Waterhemp: 100
[8]; 500 g ai/ha
  Plant response rating, Waterhemp: 100
[9]; 31 g ai/ha
  Plant response rating, Pigweed, Palmer: 80
[9]; 62 g ai/ha
  Plant response rating, Pigweed, Palmer: 80
[9]; 125 g ai/ha
  Plant response rating, Pigweed, Palmer: 95
[9]; 250 g ai/ha
  Plant response rating, Pigweed, Palmer: 95
[9]; 500 g ai/ha
  Plant response rating, Pigweed, Palmer: 100
[10]; 31 g ai/ha
  Plant response rating, Corn: 0
[10]; 62 g ai/ha
  Plant response rating, Corn: 0
[10]; 125 g ai/ha
  Plant response rating, Corn: 0
[10]; 250 g ai/ha
  Plant response rating, Corn: 0
[10]; 500 g ai/ha
  Plant response rating, Corn: 0
[11]; 31 g ai/ha
  Plant response rating, Soybean: 0
[11]; 62 g ai/ha
  Plant response rating, Soybean: 0
[11]; 125 g ai/ha
  Plant response rating, Soybean: 0
[11]; 250 g ai/ha
  Plant response rating, Soybean: 0
[11]; 500 g ai/ha
  Plant response rating, Soybean: 0
